From PubChem BioAssay AID2060511 (Molecular Pharmacology Branch, DTP, NCI, 2025)

Test system: 422866-222-R5-J1-PDC spheroids with HUVEC/MSC, viability
Experiment: Anticancer human tumor 422866-222-R5-J1-PDC patient-derived pancreatic adenocarcinoma cell line growth inhibition [GQUAD]
Details: for IC50: curve of first compound; for viability, T/C: stronger effect = lower value
From the text: DNA G-quadruplex Stabilizer Agents in Combinations in Complex Spheroids
A high-throughput screen of multi-cell type tumor spheroids was designed to identify active combinations of DNA G-quadruplex stabilizer agents and targeted small molecules. Complex spheroids include a stromal component modeled by human endothelial cells (HUVEC) and fibroblasts modeled by human mesenchymal stem cells (MSCs). The concentration ranges selected for each drug and investigational agent were based upon clinically achievable concentrations if the clinical Cmax of the agent was known.
Compounds. The drugs and investigational agents: pidnarulex (CX-5461; NSC782164), APTO-253 (NSC789042), BRACO-19 (NSC847499), peposertib (NSC802822), ceralasertib (NSC780249), elimusertib (NSC800525), camonsertib (NSC841442), AZD-1390 (NSC803789), olaparib (NSC753686), talazoparib (NSC767125), ART-558 (NSC835418), sotorasib (NSC818433), MRTX-1133 (NSC836407), SN-38 (NSC673596), topotecan (NSC609699), etoposide (NSC141540), doxorubicin (NSC123127), gemcitabine (NSC613327), 5-fluorouracil (NSC19893), paclitaxel (NSC125973), vemurafenib (NSC761431), panobinostat (NSC761190), R-306465 (JNJ-16241199; NSC773264), adavosertib (NSC754352), TP-3654 (NSC805149), carboplatin (NSC241240), KSQ-4279 (NSC840948), and staurosporine (NSC755774) were obtained from the National Cancer Institute (NCI) Developmental Therapeutics Program Chemical Repository (34). The FDA-approved anticancer drug set is available from the NCI Developmental Therapeutics Program. […] The stock solutions were prepared in dimethyl sulfoxide (DMSO, Sigma-Aldrich, St. Louis, MO, cat. D2650) at 800-fold the tested concentration and stored at -70 degrees C prior to their use. All drugs and investigational agents were tested over a range starting from a high concentration at or near the clinical Cmax and decreasing in half-log increments. If the clinical Cmax for an agent had not been determined, the highest concentration tested was 10 microM.
2.3 Cell Culture. All cells were maintained in an incubator at 37 degrees C and 5% CO2 with 95% humidity. The PDC lines were cultured according to standard operating procedures established by the NCI PDMR. All PDCs were thawed and cultured in Matrigel-coated flasks prepared with a working solution of 1X Ham's F-12 nutrient mix, without supplementation (Invitrogen, cat. 11765054), 100 U/mL penicillin-streptomycin (Invitrogen, cat. 15140122), and 2.5% Matrigel (Corning Inc., cat. 354248) for the first three passages. The 857933-349-R-J2-PDC line was cultured in 6C/Colon 1B media, which includes advanced DMEM/F-12 (Thermo Fisher Scientific, cat. 12634028), 10 mM HEPES (Thermo Fisher Scientific, cat. 15630080), 1X GlutaMAX supplement (Thermo Fisher Scientific, cat. 35050061), 0.1 mg/mL primocin (InvivoGen, cat. ant-pm-2), 10% defined fetal bovine serum, heat inactivated (HyClone Laboratories Inc., cat. SH30070.03HI), 50% L-WRN conditioned media (ATCC, cat. CRL-3276), 1.25 mM N-Acetyl-L-cysteine (Sigma-Aldrich, cat. A9165), 10 mM nicotinamide (Sigma-Aldrich, cat. N0636), 1X B-27 supplement (Thermo Fisher Scientific, cat. 17504044), 1X N-2 supplement (Thermo Fisher Scientific, cat. 17502048), 10 microM Y-27632 dihydrochloride (Tocris Bioscience, cat. 1254), and 50 ng/mL human EGF recombinant protein (Thermo Fisher Scientific, cat. PHG0311). The 485176-168-R4-J1-PDC line was cultured in Panc media, which includes all 6C/Colon 1B media components plus 100 ng/mL human FGF-10 (Thermo Fisher Scientific, cat. 100-26), 500 nM SB-431542 (Selleckchem, cat. S1067), and gastrin (Tocris, cat. 3006).
[…]

[1] = second compound 0.0316 µM, first compound 0.0316 µM
[2] = second compound 0.0316 µM, first compound 0.1 µM
[3] = second compound 0.0316 µM, first compound 0.316 µM
[4] = second compound 0.0316 µM, first compound 1 µM
[5] = second compound 0.0316 µM, first compound 3.16 µM
[6] = second compound 0.0316 µM, first compound 10 µM
[7] = second compound 0.1 µM, first compound 0.0316 µM
[8] = second compound 0.1 µM, first compound 0.1 µM
[9] = second compound 0.1 µM, first compound 0.316 µM
[10] = second compound 0.1 µM, first compound 1 µM
[11] = second compound 0.1 µM, first compound 3.16 µM
[12] = second compound 0.1 µM, first compound 10 µM
[13] = second compound 0.316 µM, first compound 0.0316 µM
[14] = second compound 0.316 µM, first compound 0.1 µM
[15] = second compound 0.316 µM, first compound 0.316 µM
[16] = second compound 0.316 µM, first compound 1 µM
[17] = second compound 0.316 µM, first compound 3.16 µM
[18] = second compound 0.316 µM, first compound 10 µM
[19] = second compound 1 µM, first compound 0.0316 µM
[20] = second compound 1 µM, first compound 0.1 µM
[21] = second compound 1 µM, first compound 0.316 µM
[22] = second compound 1 µM, first compound 1 µM
[23] = second compound 1 µM, first compound 3.16 µM
[24] = second compound 1 µM, first compound 10 µM
[25] = second compound 3.16 µM, first compound 0.0316 µM
[26] = second compound 3.16 µM, first compound 0.1 µM
[27] = second compound 3.16 µM, first compound 0.316 µM
[28] = second compound 3.16 µM, first compound 1 µM
[29] = second compound 3.16 µM, first compound 3.16 µM
[30] = second compound 3.16 µM, first compound 10 µM
[31] = second compound 10 µM, first compound 0.0316 µM
[32] = second compound 10 µM, first compound 0.1 µM
[33] = second compound 10 µM, first compound 0.316 µM
[34] = second compound 10 µM, first compound 1 µM
[35] = second compound 10 µM, first compound 3.16 µM
[36] = second compound 10 µM, first compound 10 µM
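Also: spheroids exposed to compounds for seven days before reading.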
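For viability, T/C in this document: percent viability relative to DMSO vehicle control taken as 100%.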

COc1ncnc(C2CC2)c1-c1ncc2cnn(Cc3ccc(-c4nc(C(F)(F)F)cn4C(C)C)cc3)c2n1 + Cc1[nH]c2ccc(F)cc2c1-c1nc2c3cccnc3c3ncccc3c2[nH]1
IC50 (second compound 0.0316 µM): 8.04 µM | IC50 (second compound 0.1 µM): > 10 µM | IC50 (second compound 0.316 µM): > 10 µM | IC50 (second compound 1 µM): > 10 µM | IC50 (second compound 3.16 µM): > 10 µM | IC50 (second compound 10 µM): > 10 µM | viability, T/C [1]: 91.9% | viability, T/C [2]: 96.2% | viability, T/C [3]: 111% | viability, T/C [4]: 87.1% | viability, T/C [5]: 64.6% | viability, T/C [6]: 46.4% | viability, T/C [7]: 106% | viability, T/C [8]: 97.4% | viability, T/C [9]: 110% | viability, T/C [10]: 99.2% | viability, T/C [11]: 63.1% | viability, T/C [12]: 49.8% | viability, T/C [13]: 93% | viability, T/C [14]: 116% | viability, T/C [15]: 106% | viability, T/C [16]: 90.1% | viability, T/C [17]: 66.3% | viability, T/C [18]: 55.2% | viability, T/C [19]: 86% | viability, T/C [20]: 110% | viability, T/C [21]: 105% | viability, T/C [22]: 104% | viability, T/C [23]: 72.7% | viability, T/C [24]: 54.2% | viability, T/C [25]: 67.6% | viability, T/C [26]: 70.7% | viability, T/C [27]: 71.7% | viability, T/C [28]: 77.5% | viability, T/C [29]: 63.6% | viability, T/C [30]: 60.8% | viability, T/C [31]: 58.2% | viability, T/C [32]: 53.3% | viability, T/C [33]: 73.5% | viability, T/C [34]: 47.7% | viability, T/C [35]: 60.6% | viability, T/C [36]: 50.2%

O=c1[nH]cc(F)c(=O)[nH]1 + Cc1[nH]c2ccc(F)cc2c1-c1nc2c3cccnc3c3ncccc3c2[nH]1
IC50 (second compound 0.0316 µM): > 10 µM | IC50 (second compound 0.1 µM): > 10 µM | IC50 (second compound 0.316 µM): > 10 µM | IC50 (second compound 1 µM): > 10 µM | IC50 (second compound 3.16 µM): > 10 µM | IC50 (second compound 10 µM): > 10 µM | viability, T/C [1]: 95% | viability, T/C [2]: 101% | viability, T/C [3]: 101% | viability, T/C [4]: 93.8% | viability, T/C [5]: 84.5% | viability, T/C [6]: 69.1% | viability, T/C [7]: 97.9% | viability, T/C [8]: 111% | viability, T/C [9]: 105% | viability, T/C [10]: 84.2% | viability, T/C [11]: 79.9% | viability, T/C [12]: 60.5% | viability, T/C [13]: 103% | viability, T/C [14]: 95.8% | viability, T/C [15]: 114% | viability, T/C [16]: 73.2% | viability, T/C [17]: 82.6% | viability, T/C [18]: 74% | viability, T/C [19]: 101% | viability, T/C [20]: 105% | viability, T/C [21]: 101% | viability, T/C [22]: 101% | viability, T/C [23]: 89.6% | viability, T/C [24]: 72.9% | viability, T/C [25]: 85.7% | viability, T/C [26]: 99.3% | viability, T/C [27]: 95.4% | viability, T/C [28]: 81.4% | viability, T/C [29]: 86.9% | viability, T/C [30]: 64% | viability, T/C [31]: 74.9% | viability, T/C [32]: 79.7% | viability, T/C [33]: 85.3% | viability, T/C [34]: 72% | viability, T/C [35]: 75.5% | viability, T/C [36]: 53.3%

CC1COCCN1c1cc(-c2ccnn2C)c2ccnc(-c3ccn[nH]3)c2n1 (stereo unspecified) + Cc1cnc(CNC(=O)c2c(=O)c3ccc(N4CCCN(C)CC4)nc3n3c2sc2ccccc23)cn1
IC50 (second compound 0.0316 µM): > 10 µM | IC50 (second compound 0.1 µM): 0.0316 µM | IC50 (second compound 0.316 µM): > 10 µM | IC50 (second compound 1 µM): > 10 µM | IC50 (second compound 3.16 µM): > 10 µM | IC50 (second compound 10 µM): > 10 µM | viability, T/C [1]: 75.9% | viability, T/C [2]: 61.6% | viability, T/C [3]: 47.4% | viability, T/C [4]: 38% | viability, T/C [5]: 55% | viability, T/C [6]: 81.7% | viability, T/C [7]: 64.5% | viability, T/C [8]: 53.1% | viability, T/C [9]: 48.5% | viability, T/C [10]: 41.6% | viability, T/C [11]: 46.5% | viability, T/C [12]: 89.7% | viability, T/C [13]: 65.3% | viability, T/C [14]: 60.9% | viability, T/C [15]: 50.7% | viability, T/C [16]: 40.5% | viability, T/C [17]: 50.9% | viability, T/C [18]: 69.9% | viability, T/C [19]: 71.4% | viability, T/C [20]: 68.7% | viability, T/C [21]: 53.2% | viability, T/C [22]: 53.1% | viability, T/C [23]: 47.5% | viability, T/C [24]: 67.7% | viability, T/C [25]: 70.2% | viability, T/C [26]: 74.8% | viability, T/C [27]: 61% | viability, T/C [28]: 59% | viability, T/C [29]: 46.9% | viability, T/C [30]: 61.8% | viability, T/C [31]: 66.3% | viability, T/C [32]: 66.9% | viability, T/C [33]: 56% | viability, T/C [34]: 51.6% | viability, T/C [35]: 57.6% | viability, T/C [36]: 53.1%
